The values below come from US20210002641A1, “COMPOSITIONS AND METHODS FOR TREATING GRAVES DISEASE” (The Regents of the University of Michigan, priority 2018, published 2021).

Assay [1] has as its system 3D G-OF organoids. Briefly: Organoid size (cross-sectional area) of 3D G-OF organoids. Format: cell-based, human. The conditions noted are these: T3 30 nM, TSH 5 mIU/ml, or combination; 6-day time course. On the procedure:
A hanging droplet spheroid culture system was used to generate 3D organoids. To facilitate stable morphology, methylcellulose (Mehocel A4M) was added to the growth medium (52). Prior to seeding the hanging drop culture plate (#HDP1385, Sigma-Aldrich), cells were cultured in 100 mm or 150 mm dishes until reaching approximately 90% confluence. After washing with Hank's Balanced Salt Solution (HBSS), cells were detached using 0.25% Trypsin/EDTA and resuspended in growth medium. After centrifugation for 5 minutes at 300 g, the cell pellet was re-suspended in growth medium containing 0.25% w/v Methocel A4M. […]
(§1) Adipogenic differentiation was induced with (growth or organoid) medium containing 250 nM dexamethasone, 10 nM T3, 10 μM troglitazone, and 1 μg/ml insulin on days 1-5, followed by medium with 10 μM troglitazone and 1 μg/ml insulin on days 6-11, then with medium alone on day 12. […] Fluorescence intensity of BODIPY-stained lipid droplets were measured using Nikon A1 confocal microscope (Tokyo, Japan) and quantified using Image J software version 1.51n (NIH, Bethesda, Md.). […]
Bright field images of each organoid were captured in 4× or 10× objective lenses using inverted microscope (Olympus IX70). The largest cross-sectional area (CSA) was calculated using Image J software version 1.51n. […] Intensity of immunofluorescent target proteins was quantified using NIH ImageJ software. […]

Assay [2] has as its system 3D G-OF organoids. Put plainly: Immunofluorescent staining of ECM, LOX and HIF2A proteins in 3D G-OF organoids. Format: cell-based, human. The settings on record: for ECM deposition (collagen types, FN) in G-OF organoids: immunofluorescence, 10 μM GM6001, 30 nM T3, 5 mIU/ml TSH, 0.5 mM BAPN, day 1-6. On the procedure: (§2) A hanging droplet spheroid culture system was used to generate 3D organoids. To facilitate stable morphology, methylcellulose (Mehocel A4M) was added to the growth medium (52). Prior to seeding the hanging drop culture plate (#HDP1385, Sigma-Aldrich), cells were cultured in 100 mm or 150 mm dishes until reaching approximately 90% confluence. After washing with Hank's Balanced Salt Solution (HBSS), cells were detached using 0.25% Trypsin/EDTA and resuspended in growth medium. After centrifugation for 5 minutes at 300 g, the cell pellet was re-suspended in growth medium containing 0.25% w/v Methocel A4M. Volume was adjusted such that 20,000 cells were contained in 25 μL solution, and 25 μL drops were placed into each well of the drop culture plate (defined as day 0). Organoid medium (growth medium with 0.25% w/v methocel A4M) was used throughout the duration of spheroid culture. Every day, 14 μL culture medium was removed and 14 μL fresh culture medium added to each well.
(§3) Adipogenic differentiation was induced with (growth or organoid) medium containing 250 nM dexamethasone, 10 nM T3, 10 μM troglitazone, and 1 μg/ml insulin on days 1-5, followed by medium with 10 μM troglitazone and 1 μg/ml insulin on days 6-11, then with medium alone on day 12. For the analysis of the lipid droplet formation, organoids were transferred to super-low attachment 6 well dishes and incubated in HBSS containing BODIPY (#D3922, Thermo Fisher Scientific) at 1:500 ratio by volume for 1 hour, then fixed in 4% paraformaldehyde (PFA) in PBS for 10 minutes at room temperature. Fluorescence intensity of BODIPY-stained lipid droplets were measured using Nikon A1 confocal microscope (Tokyo, Japan) and quantified using Image J software version 1.51n (NIH, Bethesda, Md.). Several compounds were added to droplets on day 1 and maintained at the same concentration until collection of organoids on day 6. For individual experiments, these included 10 μM GM6001, (global MMP inhibitor), 30 nM T3, 5 mIU/ml TSH, 30 nM T3+5 mIU/ml TSH, 0.5 mM BAPN (LOX inhibitor), and 1 μM, 5 μM or 10 μM HIF2A antagonist.
Organoids were fixed in 4% PFA/PBS overnight with or without permeabilization in 0.5% Triton X-100 in PBS for 1 hour. To stain extracellular collagen and fibronectin, no permeabilization was performed, and all the detergents were excluded from the subsequent procedures. After blocking in 3% BSA/0.1% PBST for 3 hours at room temperature, organoids were washed 3 times for 30 minutes with PBST. Samples were incubated with primary antibody overnight at 4° C. […]

The test system of assay [3] is 3D G-OF organoids. Briefly: Tissue stiffness of 3D G-OF organoids (microindentation compression test). Format: cell-based, human. The settings on record: for tissue stiffness of 3D G-OF organoids: added day 1, kept to day 6, 10 μM GM6001, 30 nM T3, 5 mIU/ml TSH, 0.5 mM BAPN, 1, 5 or 10 μM HIF2A antagonist.
Text: (§4) Orbital adipose tissues were obtained from surgical waste samples of de-identified euthyroid patients with GO undergoing orbital decompression and from non-GO subjects without inflammatory orbital disease, who underwent cosmetic eyelid surgery. OFs were isolated and grown as previously described (49). Briefly, tissues were minced into small pieces, placed on 150 mm culture dishes, and submerged in growth medium (DMEM supplemented with 10% v/v FBS, 1% v/v L-glutamine, 1% v/v antibiotic-antimycotic) at a sufficient depth to cover the tissue chunks. Explants were cultured in a humidified incubator • (at 37° C. with 5% CO2), with growth medium changes every 2-3 days. OFs from five GO patients five non-GO patients were isolated and expanded for subsequent experiments. All experiments were performed using OFs of 3-6 passages after the initial cell isolation.
as §2
as §3, with “Fluorescence intensity of BODIPY-stained lipid droplets were measured using Nikon A1 confocal microscope (Tokyo, Japan) and quantified using Image J software version 1.51n (NIH, Bethesda, Md.).” left out
The mechanical testing of the organoids was performed using the Microsquisher (CellScale, Waterloo, ON, Canada) as recently reported (53). The device consists of a microscale parallelplate compression system equipped with a 406-μm diameter cantilever. Organoids placed on a 3 mm-square plate for analysis. Immediately following collecting, organoids were placed in a 40 mL HBSS fluid bath at 37° C. and the cantilever was lowered until the upper compression plate was in contact with the top of the organoid. The organoids were compressed to 50% deformation (as determined by microscopic camera) for 20 seconds. The force used to produce 50% stain of displacement was measured by the cantilever and data were reported as force/displacement (μN/μm).

For assay [4], the system named is 3D N-OF organoids. Briefly: Tissue stiffness of 3D N-OF organoids (microindentation compression test). Format: cell-based, human. The settings on record: added day 1, kept to day 6; 10 μM GM6001, 5 mIU/ml TSH.
Text: as §4
A hanging droplet spheroid culture system was used to generate 3D organoids. […]
The mechanical testing of the organoids was performed using the Microsquisher (CellScale, Waterloo, ON, Canada) as recently reported (53). […] The organoids were compressed to 50% deformation (as determined by microscopic camera) for 20 seconds. The force used to produce 50% stain of displacement was measured by the cantilever and data were reported as force/displacement (μN/μm).

The test system of assay [5] is 3D N-OF organoids. Briefly: Immunofluorescent staining of ECM and HIF2A proteins in 3D N-OF organoids. Format: cell-based, human. The settings on record: immunofluorescence; 10 μM GM6001. On the procedure: as §2, with “Every day, 14 μL culture medium was removed and 14 μL fresh culture medium added to each well.” left out
as §1

The test system of assay [6] is mouse OF organoids. Put plainly: Tissue stiffness of 3D mouse OF organoids expressing mutant HIF2A (HIF2dPA). Format: cell-based. The settings on record: adeno-Cre-induced HIF2dPA. On the procedure: ROSA26-STOP-HIF2dPA (flox/flox) mice were provided by Dr. Emestina Schipani (University of Michigan), and used for the isolation of orbital adipose tissue. Cells isolated from this depot were cultivated as previously reported (50) and cultured in a standard growth medium. A degradation-resistant HIF2A mutant was introduced by adenoviral Cre (Vector; Ad5 CMV-Cre)-recombinase by incubation for 16 hours with the virus. Adenoviral GFP (Vector; Ad5 CMV eGFP.dIE3) or Empty (Vector: Ad5 CMV pLpA.dIE3)-recombinase was used as controls.
A hanging droplet spheroid culture system was used to generate 3D organoids. To facilitate stable morphology, methylcellulose (Mehocel A4M) was added to the growth medium (52). Prior to seeding the hanging drop culture plate (#HDP1385, Sigma-Aldrich), cells were cultured in 100 mm or 150 mm dishes until reaching approximately 90% confluence. After washing with Hank's Balanced Salt Solution (HBSS), cells were detached using 0.25% Trypsin/EDTA and resuspended in growth medium. […]
The mechanical testing of the organoids was performed using the Microsquisher (CellScale, Waterloo, ON, Canada) as recently reported (53). […] The organoids were compressed to 50% deformation (as determined by microscopic camera) for 20 seconds. The force used to produce 50% stain of displacement was measured by the cantilever and data were reported as force/displacement (μN/μm). […]

Where [7] appears, read: listed as allosteric HIF2A antagonist.

`N[C@@H](Cc1cc(I)c(Oc2ccc(O)c(I)c2)c(I)c1)C(=O)O` [T3, 3,3′,5-Triiodo-L-thyronine]: in assay [1], the “organoid size (CSA) of G-OF organoids” value is on record as “significant reduction in CSA”. In addition, the “ECM deposition (collagen types, FN) in G-OF organoids” value (shortened to “ECM deposition (collagen types, FN)”) in assay [2] is on record as “no discemable impact”.

On to `CNC(=O)[C@H](Cc1c[nH]c2ccccc12)NC(=O)[C@@H](CC(=O)NO)CC(C)C` [GM6001], for which the “tissue stiffness of 3D G-OF organoids” value in assay [3] is on record as “increased tissue stiffness”. Also, in assay [4], the “tissue stiffness of 3D N-OF organoids” value is recorded as “increased tissue stiffness”. In addition, the “ECM deposition (collagen types, FN)” value in assay [2] is “significant accumulation of type I, IV, and VI collagens”. Also, in assay [5], the “ECM deposition (collagen types) in N-OF spheroids” value is “significant accumulation of type I, IV, and VI collagens”.

Take `O=[N+]([O-])c1c(Nc2cc(F)cc(Cl)c2)ccc2nonc12` [C12H6ClFN4O3]: in assay [3] (listed as C12H6ClFN4O03), the “tissue stiffness of M22-stimulated G-OF organoids” value is given as “reversed the tissue stiffness caused by TSHR activation” and the “tissue stiffness of TSH-stimulated G-OF organoids” value is “reversed the tissue stiffness caused by TSHR activation”. For the same compound, in assay [3] (setting [7]), the “tissue stiffness of M22-stimulated G-OF organoids” value was “reverses” and the “tissue stiffness of TSH-stimulated G-OF organoids” value is listed as “reverses”. Further, the “tissue stiffness of 3D G-OF organoids” value in assay [3] is “normalized the tissue stiffness”. In addition, the “protein levels of LOX and FN in G-OF organoids” value in assay [2] (HIF2A antagonist 1 μM, 5 μM or 10 μM) is “reducing protein levels of LOX and FN, in a dose-dependent manner”.

With `N#CCCN.O=C(O)/C=C/C(=O)O` [BAPN, 3-Aminopropionitrile fumarate salt], the “tissue stiffness of 3D G-OF organoids” value in assay [3] is listed as “reduction of tissue stiffness”. The “tissue stiffness of mouse OF organoids with mutant HIF2A expression” value in assay [6] is “completely ameliorated the increased tissue stiffness”. Further, the “ECM deposition (collagen types, FN)” value in assay [2] was “effectively suppressed the deposition of collagens type I and IV, FN, but not collagen type III and VI”.
